US8283373B2, “Inhibitors of cytosolic phospholipase A2” (Pfizer Inc., priority 2005, dated 2012)
“Also recorded” adds a separate entry of the source.

What was measured:
[1] = tested on: primary cerebellar granule neurons; assay: Oxygen-glucose deprivation (OGD) in cultured cerebellar granule neurons; format: cell-based, rat; conditions: for percent cell death (lactate dehydrogenase release), Avg.: OGD 2 hours, control 14, OGD 51
Method: Primary cerebellar granule neurons were isolated from P5-8 rat pups. Briefly, cerebelli were collected and pooled in ice-cold phosphate buffer saline (PBS) without Ca^2+ and Mg^2+. The tissue was finely chopped and transferred to an enzymatic dissociation media containing 20 IU/ml papain in Earle's balanced salt solution (Worthington Biochemical, Freehold, N.J.) and incubated for 30 minutes at 37° C. After enzymatic dissociation, the papain solution was aspirated and the tissue mechanically triturated with a fire-polished Pasteur pipette in complete media [Neurobasal Medium with B-27 supplement (Gibco, Grand Island, N.Y.), penicillin/streptomycin, aphidicolin, glutamate, potassium chloride] containing 2,000 IU/ml DNase and 10 mg/ml ovomucoid protease inhibitor. Single-cell suspensions in complete media were plated on pre-coated poly-L-ornithine/laminin 24-well plates (Becton-Dickinson, Bedford, Mass.) at a density of
5.0×10^5 cells/well. Cells were maintained for two weeks prior to experimentation.
Cultures were treated with Compound A at various concentrations, 60 minutes before OGD. Media was removed and replaced with deoxygenated buffer in an anaerobic chamber (80% nitrogen, 10% hydrogen, 10% carbon dioxide gas mixture). Fresh Compound A, Example 34 or Example 41 was added to the cultures and maintained in the anaerobic chamber for 2 hours. At the end of the incubation, fresh media was exchanged and fresh Compound A was added. Cultures were maintained for an additional 24 hours in a normoxic incubator. Cell death was determined by measuring lactate dehydrogenase release into the media 24 hours later (Roche Biochemicals). In the table below, values are shown for the control, OGD, various concentrations of Compound A, and MK801, a NMDA receptor antagonist, which is a positive control.

[2] = tested on: collagen-induced arthritis; assay: Collagen-induced arthritis (CIA) model; format: in vivo, mouse
Method: The compound of Example 10 was tested in the mouse CIA model, which has many immunologic and pathologic similarities to human rheumatoid arthritis (See Trentham, D. E., et al., supra). Arthritis was induced in DBA/1LacJ mice by intradermal injection of an emulsion of bovine type II collagen and CFA followed by a boost with an intradermal injection of bovine type II collagen emulsified in incomplete Freund's Adjuvant 21 days after the initial immunization. […] At that point animals were randomly assigned to treatment groups and administered the compound of Example 10 (100 mg/kg) PO BID for 28 days. Control groups received celecoxib, vehicle alone or were left untreated. All animals were scored daily in a blinded fashion for visual signs of disease symptoms.
The mean scores of the group treated with the compound of Example 10 were compared to the vehicle-control group values using the Student's t-test.
After completion of the experiments, paws were processed for histology. Two board certified veterinary pathologist evaluated the slides in a blinded fashion. Each paw was assigned a numerical score for both arthritis severity and the general number of joints affected.

cPLA2α = target: T1, cPLA2α (Homo sapiens, UniProt P47712); assay: GLU Micelle Assay; format: biochemical
T1 sequence (P47712 1-749): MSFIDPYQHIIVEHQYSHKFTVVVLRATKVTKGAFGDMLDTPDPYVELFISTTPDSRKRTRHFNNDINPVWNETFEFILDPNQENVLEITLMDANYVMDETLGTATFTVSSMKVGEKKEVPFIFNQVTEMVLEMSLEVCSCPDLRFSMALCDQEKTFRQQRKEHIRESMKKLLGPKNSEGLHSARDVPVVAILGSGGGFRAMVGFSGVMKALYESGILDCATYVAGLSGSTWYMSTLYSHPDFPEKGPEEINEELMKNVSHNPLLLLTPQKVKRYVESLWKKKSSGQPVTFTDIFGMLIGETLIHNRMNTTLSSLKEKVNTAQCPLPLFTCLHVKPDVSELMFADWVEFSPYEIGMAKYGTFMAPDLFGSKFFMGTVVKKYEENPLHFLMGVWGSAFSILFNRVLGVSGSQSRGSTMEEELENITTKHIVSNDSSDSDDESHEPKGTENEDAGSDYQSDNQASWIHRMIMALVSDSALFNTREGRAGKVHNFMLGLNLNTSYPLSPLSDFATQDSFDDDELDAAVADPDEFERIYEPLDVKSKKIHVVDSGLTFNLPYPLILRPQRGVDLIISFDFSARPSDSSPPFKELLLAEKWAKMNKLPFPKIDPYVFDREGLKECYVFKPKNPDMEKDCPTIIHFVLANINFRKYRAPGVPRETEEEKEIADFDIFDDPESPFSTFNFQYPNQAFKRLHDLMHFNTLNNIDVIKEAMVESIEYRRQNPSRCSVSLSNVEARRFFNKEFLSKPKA
Procedure, shortened: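 Fluorogenic micelle assay with 1 μg/ml cPLA2α and 90 μM GLU substrate plus 120 μM DTPC in 940 μM Triton X-100, 50 mM Hepes pH 7.4, 0.3 mM EDTA, 1 mM CaCl2, 300 mM KCl. Fluorescence (ex 355/em 460) was read every 4 min for 84 min. Percent inhibition came from slopes relative to positive and negative controls.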

serum thromboxane B2 = assay: Thromboxane B2 levels in the ApoE KO mouse model; format: in vivo; conditions: ApoE KO mice, 3.3 mg/g chow for two days; vehicle 76.1±17.3
Method: Blood was collected through the retro-orbital siunus and left to coagulate at 37° C. for one hour. Serum was then isolated and assayed for thromboxane B2 by ELISA.
In a separate experiment, ApoE KO mice were dosed with vehicle or the compound of Example 25 at 10 mg/kg by oral gavage. Blood was collected through the retro-orbital siunus and left to coagulate at 37° C. for one hour. Serum was then isolated and assayed for thromboxane B2 by ELISA.

Row | Compound | protection of cultured neurons from OGD-induced cell death [1] | percent cell death (lactate dehydrogenase release), Avg. ([1]; 0.1 μM) [%] | percent cell death (lactate dehydrogenase release), Avg. ([1]; 0.3 μM) [%] | percent cell death (lactate dehydrogenase release), Avg. ([1]; 1 μM) [%] | percent cell death (lactate dehydrogenase release), Avg. ([1]; 3 μM) [%] | group mean severity scores (paw histology) ([2]; 100 mg/kg BID) | percentage of unaffected (grade 0) paws (histology) ([2]; 100 mg/kg BID) | number of animals without disease symptoms ([2]; 100 mg/kg PO BID) | disease severity scores vs vehicle control ([2]; 100 mg/kg PO BID for 28 days, semi-therapeutic, from day 10) | average severity grade (histology), pathologist 1 ([2]; 100 mg/kg, vehicle 2.1) | average severity grade (histology), pathologist 2 ([2]; 100 mg/kg, vehicle 3.0) | IC50 (cPLA2α) [nM] | serum Thromboxane concentration (serum thromboxane B2) [ng/mL]
1 | Cc1cccc(C)c1CS(=O)(=O)NCCc1c(CCCc2ccc(C(=O)O)cc2)c2cc(Cl)ccc2n1C(c1ccccc1)c1ccccc1 [Compound A, 4-{3-[1-benzhydryl-5-chloro-2-(2-{[(2,6-dimethylbenzyl)sulfonyl]amino}ethyl)-1H-indol-3-yl]propyl}benzoic acid] | effective in protecting cultured neurons from OGD-induced cell death | 38 | 31 | 27 | 20 |  |  |  |  |  |  |  | 
2 | O=C(O)c1ccc(CCCc2c(CCNS(=O)(=O)Cc3ccccc3C(F)(F)F)n(C(c3ccccc3)c3ccccc3)c3ccc(Cl)cc23)cc1 [Example 10, 4-(3-{5-chloro-1-(diphenylmethyl)-2-[2-({[2-(trifluoromethyl)benzyl]sulfonyl}amino)ethyl]-1H-indol-3-yl}propyl)benzoic acid] |  |  |  |  |  | lowest group mean severity scores | highest percentage of unaffected (grade 0) paws | greatest | statistically significant decrease; also recorded: significant reduction of disease | 0.9 | 2.1 | 9 | 1.4 ± 0.7
